Data on 1 compound can be found in US12313635B2, “Biomarker for thoracic aortic aneurysm” (THE REGENTS OF THE UNIVERSITY OF CALIFORNIA, priority 2018, dated 2025).

Assay [1] relates to NO bioavailability in aortic tissues. The experiment in a line: Aortic NO bioavailability by electron spin resonance. It counts as in vivo. Particulars: aortas of Fbn1^C1039G/+ mice, age 8 and 12 weeks, oral FA.
Procedure: FA treatment started at 4 weeks of age, and lasted through the entire study period of 8 weeks till harvest. Aortic N O production was also measured using ESR as previous described^19-22, 26-29, 32-34. Briefly, freshly isolated aortas were cut into 2 mm rings, and then incubated in freshly prepared NO specific spin trap Fe^2+(DETC)2 (0.5 mmol/L) in nitrogen bubbled, modified Krebs/HEPES buffer (as described above) at 37° C. for 60 min, in the presence of calcium ionophore A23187 (10 μmol/L). The aortic rings were then snap frozen in liquid nitrogen and loaded into a finger Dewarfor measurement with ESR. The instrument settings were as the following: Center field, 3440; Sweep width, 100 G: microwave frequency, 9.796 GHz; microwave power 13.26 mW; modulation amplitude, 9.82 G; 512 points of resolution; and receiver gain 356.
For assay [2], the system named is DHFR. The experiment in a line: Western blotting of DHFR and eNOS expression in aortic endothelial cells. It counts as in vivo, mice. Particulars: aortic ECs of Fbn1^+/+ and Fbn1^C1039G/+ animals after FA treatment. On the procedure: (§1) FA treatment started at 4 weeks of age, and lasted through the entire study period of 8 weeks till harvest.
Western blotting was performed following standard protocols, using 12.5% SDS/PAGE gel and nitrocellulose membranes. Primary antibodies and their dilutions used were: DHFR (1:500, Novus Biologicals, H00001719-MO1), β-actin (1:3000, Sigma-Aldrich, A2066), eNOS (1:2000, BD Transduction Laboratories, 610297), TGFβ (1:500, Abcam, ab92486), NOX4 (1:300, Novus Biologicals, NB110-58849SS), and GTPCH 1 (1:500, Abbiotec, 250680).
Endothelial cells (ECs) were isolated from freshly prepared aortas, Western blot was used to detect DHFR expression in aortic ECs and HPLC was performed to assess DHFR activity in the isolated ECs and the denuded aortas of the Fbn1^+/+ and Fbn1^C1039G/+ animals. […] As shown in FIGS. 6D & 6E, DHFR activity was measured via HPLC from both the isolated ECs (FIG. 6D) and the denuded aortas (FIG. 6E).

Assay [3] deals with Ang II infused hph-1 mice and Ang II-infused apoE null mice. Particulars: cited from earlier work.
A further assay concerns eNOS. The experiment in a line: Aortic superoxide production and eNOS uncoupling activity (L-NAME-sensitive superoxide) by electron spin resonance. Type of assay: in vivo, mice. The method, then: as §1
Aortic superoxide was measured by ESR as previously described^19-22, 26-33. Briefly, freshly isolated aortas were homogenized on icein lysis buffer containing 1:100 protease inhibitor cocktail, and centrifuged at 12,000 g for 15 min. Protein content of the supernatant was determined using a protein assay kit (Bio-Rad, #500-0113, #500-0114, #500-0115). […]
(§2) Four weeks old heterozygous Fbn1^C1039G/+ male animals were treated with TGFβ neutralizing antibody (anti-TGFβ, clone 1D11, Bio X Cell) or isotype (IgG, clone MOPC21, Bio X Cell) as previously shown^40. […] Aortic superoxide production and eNOS uncoupling activity were determined after 4 weeks injection as described above.
Firstly, ESR was used to measure the aortic superoxide production with or without L-NAME, an inhibitor for NOS. If eNOS is functional and coupled, its inhibition by L-NAME will increase the measured superoxide due to lack of scavenging effects of NO on superoxide. However, if eNOS is dysfunctional and uncoupled, it produces superoxide and the inhibition with L-NAME will reduce measured superoxide.

The test system of the next assay is H4B. The assay can be described thus: Aortic and plasma tetrahydrobiopterin (H4B) levels by HPLC. Type of assay: in vivo. Particulars: Fbn1^+/+ and Fbn1^C1039G/+ mice, oral FA vs chow diet. On the procedure: as §1
Aortic H4B and plasma H4B were measured using HPLC as previously described^19-22, 26, 27, 32, 33, 35-37. For the aorta, freshly isolated aortas were lysed in H4B lysis buffer (0.1 M phosphoric acid, 1 mM EDTA, 10 mM dl-dithiothreitol) and then centrifuged at 12,000 g for 3 min at 4° C. in the dark. For plasma, equal volumes of plasma and H4B lysis buffer were mixed and incubated on ice for 20 min in the dark and then centrifuged at 12,000 g for 3 min at 4° C. in the dark. The supernatant for both the aorta and plasma was subjected to oxidation in acidic (0.2 M trichloroacetic acid with 2.5% 12 and 10% KI) and alkalytic solutions (0.1 M NaOH with 0.9% 12 and 1.5% KI). After centrifugation, 10 μl of the supernatant was injected into a HPLC system equipped with a fluorescent detector (SHIMADZU AMERICA INC, Carlsbad, CA, USA). Excitation and emission wavelengths of 350 nm and 450 nm were used to detect H4B and its oxidized species. H4B concentration was calculated as previously described ^38, 39.

Assay [4] concerns DHFR. The assay can be described thus: DHFR activity by HPLC in isolated ECs and denuded aortas. Particulars: Fbn1^C1039G/+ and Fbn1^+/+ mice, oral FA treatment. Type of assay: in vivo. On the procedure: as §1
DHFR activity was measured from isolated EC or denuded aorticring lysates as previously described^19, 22, 26. Briefly, lysates were incubated in a DHFR assay buffer (0.1 mol/L potassium phosphate dibasic, 1 mmol/L DTT, 0.5 mmol/L KCl, 1 mmol/L EDTA, and 20 mmol/L sodium ascorbate at pH 7.4) with NADPH (200 μmol/L) and the substrate dihydrofolate (50 μmol/L) at 37° C. for 20 min in the dark. The product of the reaction, tetrahydrofolate (THF), was measured using a HPLC system (SHIMADZU AMERICA INC, Carlsbad, CA, USA) with a C-18 column (Alltech, Deerfield, MA, USA) using water based mobile phase consisting of 7% acetonitrile and 5 mmol/L of potassium phosphate dibasic at pH 2.3. The signal was detected using a fluorescent detector at 295 nm excitation and 365 nm emission. The THF content was calculated against a standard curve prepared using THF solutions in assay buffer. Data are presented as nmol production of THF per min per mg protein.

Assay [5] concerns Fbn1^C1039G/+ Marfan Syndrome (MFS) mice. The experiment in a line: Ultrasound imaging (echocardiography) of aortic root and abdominal aorta diameters. Type of assay: in vivo. Particulars: FA food (15 mg/kg/day from 4 weeks of age) vs chow diet.
Source text: All experimental procedures were approved by the Institutional Animal Care and Usage committee at the University of California, Los Angeles (UCLA). Original heterozygous Fbn1^C1039G/+ male animals were purchased from Jackson Labs (Bar Harbor, ME, Strain B6.129-Fbn1^tm1Hcd/J, stock #012885). Heterozygous mice develop proximal aortic aneurysms, mitral valve thickenings, pulmonary alveolar septation defects, mild thoracic kyphosis, and skeletal myopathy, but 90% reportedly live to one year of age. This strain was backcrossed to C57BL/6 for more than nine generations by the donating laboratory^14. All pups were genotyped using PCR (FIG. 2) as per instructions by Jackson Labs.
as §1
Animals were anesthetized with isoflurane (˜[…]), and secured onto a temperature controlled table to maintain temperature at 37° C. Hair from the abdomen and the chest were removed with a hair removal cream (Nair). […] All images were recorded and saved for later offline aortic dimension analysis.
as §2

In the case of `Nc1nc2ncc(CNc3ccc(C(=O)N[C@@H](CCC(=O)O)C(=O)O)cc3)nc2c(=O)[nH]1` [FA, folic acid], the NO bioavailability result in assay [1] was “markedly improved”. Besides, the “expression of DHFR” value with DHFR [2] is listed as “increased”. Also, the AAA formation entry in assay [3] (Ang II infused hph-1 mice and Ang II-infused apoE null mice, oral administration) is “completely or largely attenuated”. The “plasma and tissue H4B levels” value in assay [3] (angiotensin II infused hph-1 and apoE null mice (AAA models)) is “restored”. Moreover, the “L-NAME-sensitive superoxide production (eNOS uncoupling activity)” value in the assay on eNOS (aortas of Fbn1^C1039G/+ mice at 8 and 12 week old, oral FA) is “completely attenuated”. Also, the superoxide production entry in the assay with eNOS (aortas of Fbn1^C1039G/+ mice, FA diet) was “reduce superoxide production”. In the assay with H4B, the “H4B levels in plasma” value is on record as “substantially restored” and the “H4B levels in the aortas” value is given as “substantially restored”. Further, in the assay with DHFR [4], the “DHFR activity in the denuded aortas” value is listed as “substantially increased” and the “DHFR activity in the isolated ECs” value is “substantially increased”. In addition, in assay [5], the “size (diameter) of abdominal aortas” value is reported as “substantially smaller” and the “size (diameter) of aortic roots” value was “substantially smaller”.
